Laboratory results: patent US20040052922A1, “Nutritional and therapeutical preparations having antioxidant activity” (priority 2000, published 2004)

Legend:
Format in all cases: in vivo, rat
[1] = Body weight of rats on hypercaloric diet
Experimental: (§1) Rats received hypercaloric, hypertriglyceridemizing and hypercholesterolemizing diet. After twenty days of treatment, the effect of the compositions on the following parameters was evaluated: 2) body weight; 80 Male rats, each weighing 150-200 g, were used. The animals were subdivided into 8 groups of 10 animals each: […] 20% casein; 3.5% mixture of oligoelements and mineral salts; 0.1% mixture of vitamins; 0.2% choline ditartrate; 2% cellulose; cholesterol 0.5%; 0.25% sodium cholate; 58.44% saccharose; 10.0% lard and 4.9% olive oil. […] 3rd group A: animals were treated with a polycosanols mixture (octacosanol=50%) of rice wax (PLC), animals received for 20 days the same diet as the controls, except that 0.5 g of rice wax polycosanols replaced in part a similar amount of olive oil (olive oil used: 4.4%). […] 5th group: treated with 1-piperoylpiperidine (P); animals received for 20 days the same diet as the controls, except that 0.025 g of 1-piperoylpiperidine replaced a similar amount of olive oil (olive oil used: 4.875%).

[2] = Total cholesterol, HDL cholesterol and triglycerids plasma levels in rats on hypercaloric diet
Experimental: as §1, with “4) total cholesterol and HDL cholesterol plasma levels; 5) total triglycerids plasma levels.” for “2) body weight;”

lipoperoxides = experiment: Lipoperoxides levels (malonyldialdehyde) in plasma, liver, brain and heart of rats on hypercaloric diet
Experimental: Rats received hypercaloric, hypertriglyceridemizing and hypercholesterolemizing diet. After twenty days of treatment, the effect of the compositions on the following parameters was evaluated: 1) lipoperoxides levels in plasma, liver, brain and heart; 80 Male rats, each weighing 150-200 g, were used. […] 20% casein; 3.5% mixture of oligoelements and mineral salts; 0.1% mixture of vitamins; 0.2% choline ditartrate; 2% cellulose; cholesterol 0.5%; 0.25% sodium cholate; 58.44% saccharose; 10.0% lard and 4.9% olive oil. […] Malonyldialdehyde was evaluated according to the procedure by K. Yagi et al., 1982, in “Lipid Peroxides in Biology and Medicine”, Academic Press, New York, pp. 324-340.

[3] = system: membrane of erythrocyte ghosts; experiment: Membrane fluidity of erythrocyte ghosts (TMA-DPH fluorescent probe) in rats on hypercaloric, hyperlipidemizing diet; settings: expressed as % compared with controls values at time 0; after 20 days of dietary treatment
Experimental: as §1, with “evaluated:” for “evaluated: 2) body weight;”, “4.875%). […] Membrane fluidity of erythrocyte ghosts and plasma platelets was measured using TMA-DPH as fluorescent probe, according to the method by […]. et al., 1999, Thromb. Hoemost., 82 pp. 149.” for “4.875%).”

[4] = system: membrane of plasma platelets; experiment: Membrane fluidity of plasma platelets (TMA-DPH fluorescent probe) in rats on hypercaloric, hyperlipidemizing diet; settings: expressed as % compared with controls values at time 0; after 20 days of dietary treatment
Experimental: as §1, with “evaluated:” for “evaluated: 2) body weight;”, “4.875%). […] Membrane fluidity of erythrocyte ghosts and plasma platelets was measured using TMA-DPH as fluorescent probe, according to the method by […]. et al., 1999, Thromb. Hoemost., 82 pp. 149.” for “4.875%).”

[5] = after 20 days of diet treatment
[6] = in brackets, control after 20 day diet = 100%

Compound: O=C(/C=C/C=C/c1ccc2c(c1)OCO2)N1CCCCC1 [P, 1-piperoylpiperidine]
- body weight [1, 5]: 223 ± 16 g
- body weight, percent change vs control rats after 20 day diet [1, 6]: −0.4%
- HDL cholesterol [2, 5]: 29.3 ± 1.5 mg/dL
- Total cholesterol [2, 5]: 125.2 ± 12.5 mg/dL
- total triglycerids [2, 5]: 81.9 ± 8.7 mg/dL
- Total cholesterol, percent change vs control rats after 20 day diet [2, 6]: −0.7%
- total triglycerids, percent change vs control rats after 20 day diet [2, 6]: −0.7%
- MDA BRAIN (lipoperoxides; brain, after 20 day dietary treatment): 107 ± 5 n mols of malonyldialdehyde (MDA) per gram of tissue
- Percent change vs. controls (MDA BRAIN) (lipoperoxides; brain, vs control rats after 20 days of diet): −0.9%
- MDA HEART (lipoperoxides; heart, after 20 day dietary treatment): 44 ± 7 n mols of malonyldialdehyde (MDA) per gram of tissue
- Percent change compared with controls (MDA HEART) (lipoperoxides; heart, vs control rats after 20 days of diet): −2.2%
- MDA LIVER (lipoperoxides; liver, after 20 day dietary treatment): 43.5 ± 7.8 n mols of malonyldialdehyde (MDA) per gram of tissue
- Percent change vs. controls (MDA LIVER) (lipoperoxides; liver, vs control rats after 20 days of diet): −1.5%
- MDA PLASMA (lipoperoxides; plasma, after 20 day dietary treatment): 5.0 ± 0.3 n mols of malonyldialdehyde (M
- Percent change vs. controls (MDA PLASMA) (lipoperoxides; plasma, vs control rats after 20 days of diet): −1.9%
- membrane fluidity (erythrocyte ghosts) [3]: 73%
- membrane fluidity (plasma platelets) [4]: 70%
